Measured values taken from patent publication US11202773B2, “Locally bioavailable drugs” (UNIVERSITY OF HOUSTON SYSTEM, priority 2015, dated 2021).
Where two headings read alike, the source gives them in different places.

Assays:
human COX-2 = biological target: T1, human COX-2 (Homo sapiens, UniProt P35354); test: In vitro enzyme assay, recombinant human COX-2 (PGE2 production); type: biochemical; conditions: read-out: IC50 against recombinant human COX-2
T1 sequence (P35354 18-604): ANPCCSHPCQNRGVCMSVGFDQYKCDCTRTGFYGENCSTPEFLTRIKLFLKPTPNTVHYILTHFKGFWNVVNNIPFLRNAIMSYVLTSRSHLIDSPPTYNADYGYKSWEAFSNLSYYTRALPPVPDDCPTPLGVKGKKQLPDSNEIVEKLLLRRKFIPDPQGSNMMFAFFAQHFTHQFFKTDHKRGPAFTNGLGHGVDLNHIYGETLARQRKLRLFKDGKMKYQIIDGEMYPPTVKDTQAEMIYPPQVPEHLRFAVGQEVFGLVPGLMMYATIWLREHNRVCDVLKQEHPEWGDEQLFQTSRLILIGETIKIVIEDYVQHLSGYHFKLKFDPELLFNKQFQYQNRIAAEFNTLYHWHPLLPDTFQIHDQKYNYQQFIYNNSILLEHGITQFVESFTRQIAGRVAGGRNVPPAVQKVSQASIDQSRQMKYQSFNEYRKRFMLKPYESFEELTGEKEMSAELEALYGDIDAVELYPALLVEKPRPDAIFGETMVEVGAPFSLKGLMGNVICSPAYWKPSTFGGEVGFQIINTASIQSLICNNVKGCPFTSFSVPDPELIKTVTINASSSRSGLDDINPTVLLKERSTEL
Text: FIG. 3A is a bar graph illustration of PGE2 production by recombinant human COX-2 enzyme in the presence of the new compounds. Less PGE2 production means inhibition of COX-2 enzyme.
FIG. 3B is a bar graph illustration of PGE2 production by recombinant human COX-2 enzyme in the presence of the metabolites of the new compounds. Less PGE2 production means inhibition of COX-2 enzyme.

rat liver microsomes = test: Glucuronidation by rat liver microsomes; type: in vitro ADME
Method: (§1) FIG. 5A is a bar graph illustrating in vitro metabolism of phenolics via glucuronidation pathway. Glucuronidation rates of all the new locally bioavailable COX-2 inhibitors by rat liver microsomes. Additional metabolic rates of various locally bioavailable COX-2 inhibitors are in Table 3. […]. The incubation systems were: for glucuronidation, 0.88 mM magnesium chloride (MgCl2), 4.4 mM saccharolactone, 0.022 mg/mL alamethicin, 3.5 mM uridine 5′-diphospho-glucuronic acid (UDPGA), 10 μM substrates and different concentrations of microsomes in 50 mM potassium phosphate buffer (pH 7.4); for sulfation, 10 mM dithiothreitol (DTT), 5 mM MgCl2, 100 μM 3′-phosphoadenosine-5′-phosphosulfate (PAPS),10 μM substrate and different concentrations of S9 fractions in 50 mM potassium phosphate buffer (pH 7.4).
(§2) In vitro tools were employed to help predict the in vivo metabolism rates of the COX-2 inhibitors that are phenolics. The microsomes and S9 fractions prepared from colon or liver were used to determine the in vivo glucuronidation and sulfation rates of the phenolic compounds, respectively. By employing microsomes and S9 fractions prepared from both rats and humans, it could be determined if the results obtained in the rat model could be reasonably extrapolated to humans. In these experiments, raloxifene and genistein, two phenolic compounds which undergo extensive first-pass metabolism, were selected as controls.

recombinant human COX-1 = recombinant human COX-1 (Homo sapiens, UniProt P23219); test: In vitro enzyme assay, recombinant human COX-1; type: biochemical; conditions: read-out: IC50 against recombinant human COX-1
Chain of recombinant human COX-1 (P23219 24-599): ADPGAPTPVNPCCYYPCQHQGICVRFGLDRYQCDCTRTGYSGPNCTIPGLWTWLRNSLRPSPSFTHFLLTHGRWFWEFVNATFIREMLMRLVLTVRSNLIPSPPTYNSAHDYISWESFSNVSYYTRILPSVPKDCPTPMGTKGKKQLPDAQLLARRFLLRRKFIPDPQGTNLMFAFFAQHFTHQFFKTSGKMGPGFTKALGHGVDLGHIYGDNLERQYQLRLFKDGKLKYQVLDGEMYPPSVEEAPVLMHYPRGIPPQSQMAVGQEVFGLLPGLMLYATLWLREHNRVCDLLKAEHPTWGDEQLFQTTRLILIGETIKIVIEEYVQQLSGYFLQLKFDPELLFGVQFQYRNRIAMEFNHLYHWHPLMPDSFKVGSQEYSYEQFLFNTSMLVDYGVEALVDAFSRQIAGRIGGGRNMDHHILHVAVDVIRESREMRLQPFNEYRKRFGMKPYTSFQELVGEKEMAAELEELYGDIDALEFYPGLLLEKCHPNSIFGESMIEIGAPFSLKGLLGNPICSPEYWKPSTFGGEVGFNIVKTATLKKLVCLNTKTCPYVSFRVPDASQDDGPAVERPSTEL

mouse COX-2 = biological target: T2, mouse COX-2 (Mus musculus, UniProt Q05769); test: COX-2 activity (PGD2/PGE2 production) in LPS-induced Raw264.7 cells; type: cell-based; conditions: 0.1 μg/mL LPS, 14 hours co-incubation
T2 construct: Raw264.7 is a mouse macrophage cell line which expresses a high level of COX-2 protein upon lipopolysaccharide (LPS) induction; endogenous in cells; host or cells: Raw264.7 (LPS-induced)
T2 sequence (Q05769 18-604): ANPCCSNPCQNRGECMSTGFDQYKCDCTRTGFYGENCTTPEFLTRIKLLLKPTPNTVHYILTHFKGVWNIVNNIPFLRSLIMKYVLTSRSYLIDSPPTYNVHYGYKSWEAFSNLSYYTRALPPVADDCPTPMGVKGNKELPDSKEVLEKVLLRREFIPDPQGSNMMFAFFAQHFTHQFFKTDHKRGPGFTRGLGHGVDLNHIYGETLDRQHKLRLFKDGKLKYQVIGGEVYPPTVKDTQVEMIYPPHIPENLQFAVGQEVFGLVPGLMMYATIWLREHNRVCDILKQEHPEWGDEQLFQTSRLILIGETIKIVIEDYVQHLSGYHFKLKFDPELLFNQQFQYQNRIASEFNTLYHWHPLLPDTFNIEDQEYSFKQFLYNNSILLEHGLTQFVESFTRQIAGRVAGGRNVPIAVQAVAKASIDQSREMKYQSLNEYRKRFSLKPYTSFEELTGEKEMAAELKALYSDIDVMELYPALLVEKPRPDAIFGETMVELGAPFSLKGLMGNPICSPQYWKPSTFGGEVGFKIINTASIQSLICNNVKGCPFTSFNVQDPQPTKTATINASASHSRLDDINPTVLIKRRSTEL
Method: First, the inhibitory effects of the new synthesized compounds on COX-2 were assayed in two cell lines: Raw264.7 cells and HCA-7 cells. Raw264.7 is a mouse macrophage cell line which expresses a high level of COX-2 protein upon lipopolysaccharide (LPS) induction. […] The concentration of prostaglandins (both PGD2 and PGE2) accumulated in the cell culture medium can be employed as an indicator of COX-2 activity. HCA-7 is a human colon cancer cell line in which COX-2 protein is constitutively expressed. Briefly, the cells were pre-incubated with different concentrations of the new compounds for 30 min, and then 10 μM A23187 (a calcium ionophore) was added to release membrane-bound arachidonic acid (the natural substrate of COX-2) to the cytosolic domain. The system was incubated for another 30 minutes and PGE2 concentrations in the culture medium were determined. In both cell lines, higher PGD2/PGE2 concentrations in the media meant more COX-2 activity.

rat colon microsomes = test: Glucuronidation by rat colon microsomes; type: in vitro ADME
Method: as §1, with “5B” for “5A”, “glucuronidation” for “metabolism”, “in liver and colon microsomes of rats.” for “via glucuronidation pathway.”, “6a1-6a4” for “all the new locally bioavailable COX-2 inhibitors”, “and colon microsomes were measured.” for “microsomes.”, “(PAPS), 10” for “(PAPS),10”
as §2

human Colon S9 [1] = test: Sulfation by human colon S9; type: in vitro ADME; conditions: substrate 10 μM
Method: as §1, with “FIG. 5D” for “FIG. 5A”, “of phenolics.” for “of phenolics via glucuronidation pathway.”, “of 6a1-6a4” for “of all the new locally bioavailable COX-2 inhibitors”, “by human” for “by rat”, “liver and intestinal” for “liver”, “Table 4.” for “Table 3.”
as §2

human liver microsomes = test: Glucuronidation by human liver microsomes; type: in vitro ADME
Method: as §1, with “FIG. 5D” for “FIG. 5A”, “of phenolics.” for “of phenolics via glucuronidation pathway.”, “of 6a1-6a4” for “of all the new locally bioavailable COX-2 inhibitors”, “by human” for “by rat”, “liver and intestinal” for “liver”, “Table 4.” for “Table 3.”
as §2

human Colon S9 [2] = test: Glucuronidation by human colon S9; type: in vitro ADME; conditions: substrate 10 μM
Method: as §1, with “FIG. 5D” for “FIG. 5A”, “of phenolics.” for “of phenolics via glucuronidation pathway.”, “of 6a1-6a4” for “of all the new locally bioavailable COX-2 inhibitors”, “by human” for “by rat”, “liver and intestinal” for “liver”, “Table 4.” for “Table 3.”
as §2, with “The microsomes and S9 fractions prepared from colon or liver were used to determine the in vivo glucuronidation and sulfation rates of the phenolic compounds, respectively.” left out

rat colon S9 = test: Sulfation by rat colon S9 fractions; type: in vitro ADME; conditions: substrate 10 μM
Method: as §1, with “FIG. 5C” for “FIG. 5A”, “via sulfonation” for “via glucuronidation”, “pathway. Sulfation” for “pathway. Glucuronidation”, “of 6a1-6a4” for “of all the new locally bioavailable COX-2 inhibitors”, “liver and colon S9 fractions.” for “liver microsomes.”, “μM 3′-phosphoadeno sine-5′-phosphosulfate” for “μM 3′-phosphoadenosine-5′-phosphosulfate”
as §2

human liver S9 = test: Sulfation by human liver S9; type: in vitro ADME; conditions: substrate 10 μM
Method: as §1, with “FIG. 5D” for “FIG. 5A”, “of phenolics.” for “of phenolics via glucuronidation pathway.”, “of 6a1-6a4” for “of all the new locally bioavailable COX-2 inhibitors”, “by human” for “by rat”, “liver and intestinal” for “liver”, “Table 4.” for “Table 3.”
as §2

human intestine S9 = test: Sulfation by human intestine S9; type: in vitro ADME; conditions: substrate 10 μM
Method: as §1, with “FIG. 5D” for “FIG. 5A”, “of phenolics.” for “of phenolics via glucuronidation pathway.”, “of 6a1-6a4” for “of all the new locally bioavailable COX-2 inhibitors”, “by human” for “by rat”, “liver and intestinal” for “liver”, “Table 4.” for “Table 3.”
as §2

[3] = test system: human intestine microsomes; test: Glucuronidation by human intestine microsomes; type: in vitro ADME; conditions: human; substrate 10 μM
Method: as §1, with “FIG. 5D” for “FIG. 5A”, “of phenolics.” for “of phenolics via glucuronidation pathway.”, “of 6a1-6a4” for “of all the new locally bioavailable COX-2 inhibitors”, “by human” for “by rat”, “liver and intestinal” for “liver”, “Table 4.” for “Table 3.”
as §2

rat liver S9 = test: Sulfation by rat liver S9 fractions; type: in vitro ADME; conditions: substrate 10 μM
Method: as §1, with “FIG. 5C” for “FIG. 5A”, “via sulfonation” for “via glucuronidation”, “pathway. Sulfation” for “pathway. Glucuronidation”, “of 6a1-6a4” for “of all the new locally bioavailable COX-2 inhibitors”, “liver and colon S9 fractions.” for “liver microsomes.”, “μM 3′-phosphoadeno sine-5′-phosphosulfate” for “μM 3′-phosphoadenosine-5′-phosphosulfate”
as §2

Q: `COc1ccc(-c2cc(COc3ccccc3O)nn2-c2ccc(S(N)(=O)=O)cc2)cc1` [Compound 6c1] was tested. Which IC50 (human COX-2) did it give?
A: 40.3 nM

Q: What about the “Glucuronidation rates by liver microsomes (Mean)” value (rat liver microsomes) of the same compound?
A: 7026 pmol/mg/min

Q: And the IC50 (recombinant human COX-1)?
A: 19.8 µM

Q: For `COc1ccc(-c2cc(COc3cccc(O)c3)nn2-c2ccc(S(N)(=O)=O)cc2)cc1` [Compound 6c2], which IC50 (human COX-2) is on record?
A: 353 nM

Q: What about the “Glucuronidation rates by liver microsomes (Mean)” value (rat liver microsomes) of the same compound?
A: 3092 pmol/mg/min

Q: What about the IC50 (mouse COX-2) of the same compound?
A: 2.38 ± 0.502 µM

Q: And the IC50 (recombinant human COX-1)?
A: 1.1 µM

Q: How did the IC50 (human COX-2) turn out when `COc1ccc(-c2cc(COc3ccc(O)cc3)nn2-c2ccc(S(N)(=O)=O)cc2)cc1` [Compound 6c3] was run?
A: 623 nM

Q: And the “Glucuronidation rates by liver microsomes (Mean)” value (rat liver microsomes)?
A: 934 pmol/mg/min

Q: And the IC50 (mouse COX-2)?
A: 0.019 ± 0.002 µM

Q: And the IC50 (recombinant human COX-1)?
A: 12.6 µM

Q: For `Cc1ccc(-c2cc(COCc3ccccc3O)nn2-c2ccc(S(N)(=O)=O)cc2)cc1` [Compound 7a1], which IC50 (human COX-2) is on record?
A: 1.11 nM

Q: And the “Glucuronidation rates by liver microsomes (Mean)” value (rat liver microsomes)?
A: 1050 pmol/mg/min

Q: And the “Glucuronidation rates by colon microsomes (Mean)” value (rat colon microsomes)?
A: 160 pmol/mg/min

Q: What about the IC50 (recombinant human COX-1) of the same compound?
A: 4.9 µM

Q: What about the “Sulfation rates by human Colon S9 (Mean)” value (human Colon S9 [1]) of the same compound?
A: 40 pmol/mg/min

Q: What about the “Glucuronidation rates by liver microsomes (Mean)” value (human liver microsomes) of the same compound?
A: 2510 pmol/mg/min

Q: What about the “Glucuronidation rates by human Colon S9 (Mean)” value (human Colon S9 [2]) of the same compound?
A: 190 pmol/mg/min

Q: Which results are given for `COc1ccccc1COCc1cc(-c2ccc(C)cc2)n(-c2ccc(S(N)(=O)=O)cc2)n1` [Compound 7a3]?
A: IC50 (human COX-2): 40.3 nM; IC50 (recombinant human COX-1): 19.8 µM

Q: Which results are given for `O=c1c(-c2ccc(O)cc2)coc2cc(O)cc(O)c12` [Genistein, reference compound]?
A: Sulfation rates by colon S9 (Mean) (rat colon S9): 4 pmol/mg/min; Glucuronidation rates by liver microsomes (Mean) (rat liver microsomes; rat, substrate 10 μM): 2199 pmol/mg/min; Glucuronidation rates by colon microsomes (Mean) (rat colon microsomes; rat, substrate 10 μM): 142 pmol/mg/min; Sulfation rates by liver S9 (Mean) (human liver S9): 24 pmol/mg/min; Sulfation rates by human intestine S9 (Mean) (human intestine S9): 46 pmol/mg/min; Glucuronidation rates by intestine microsomes (Mean) [3]: 4665 pmol/mg/min; Sulfation rates by liver S9 (Mean) (rat liver S9): 77 pmol/mg/min; Glucuronidation rates by liver microsomes (Mean) (human liver microsomes; human, substrate 10 μM): 965 pmol/mg/min
